Measurements reported in US11708381B2, “Inhibitors of androgen receptor signaling” (XAVIER UNIVERSITY OF LOUISIANA, priority 2016, dated 2023).
Like-named read-outs stand apart in the source and are kept apart here.

What was measured:
Assay type in all cases: cell-based
22RV1 cells = experiment: Antiproliferative activity, resazurin assay, 22RV1 cells; details: for Inhibitory rate at 10^−6 M in 22RV1 cells: 72 h incubation; for IC50: enzalutamide-resistant 22RV1 cells, 72 h, cell proliferation
Method: (§1) LNCaP95 and 22RV1 are prostate cancer cell lines that express high level of AR-V7 and other AR-Vs, and are enzalutamide-resistant. LNCaP95 cells were maintained in RPMI1640 medium with charcoal-stripped serum (CSS). 22Rv1 cells were maintained in RPMI1640 medium with 10% FBS. Cells were seeded in 96-well plates (5×10^3 cells/well) containing 50 μL growth medium for 24 hrs. After medium removal, 100 μL fresh medium containing individual compound at different concentrations was added to each well and incubated at 37° C. for 72 h. Then 20 μL of resazurin was added for 2 h before recording fluorescence at 560 nm (excitation) and 590 nm (emission) using a Victor microtiter plate fluorometer (Perkin-Elmer, USA). The IC50 was defined as the compound concentration required for inhibiting cell proliferation by 50%, in comparison with cells treated with the maximum amount of DMSO (0.25%) and considered as 100% viability.

LNCaP95 cells = experiment: Antiproliferative activity, resazurin assay, LNCaP95 cells; details: enzalutamide-resistant LNCaP95 cells, 72 h, cell proliferation, read-out: IC50 (μM) LCaP95
Method: as §1

AR [1] = experiment: Downregulation of AR in 22RV1 cells; details: 22RV1, enzalutamide-resistant prostate cancer cell line (FIG. 11)
AR-V7 [2] = experiment: Downregulation of AR-V7 in 22RV1 cells; details: 22RV1, enzalutamide-resistant prostate cancer cell line (FIG. 11)
AR-V7 [3] = experiment: Downregulation of AR-V7 in LNCaP95 cells; details: LNCaP95, enzalutamide-resistant prostate cancer cell line (FIG. 10)
AR [4] = experiment: Downregulation of AR in LNCaP95 cells; details: LNCaP95, enzalutamide-resistant prostate cancer cell line (FIG. 10)

Compound	Inhibitory rate at 10^−6 M in 22RV1 cells (22RV1 cells)	IC50 (22RV1 cells; Homo sapiens)	IC50 (LNCaP95 cells; LNCaP-95)	also measured
O=C(Nc1ccc([N+](=O)[O-])cc1F)c1cc(F)ccc1O	43.9%	0.244 µM	0.206 µM	–
O=C(Nc1ccc(C(F)(F)F)cc1F)c1cc(F)c(F)cc1O	52.7%	0.382 µM	0.199 µM	–
N#Cc1ccc(NC(=O)c2cc(F)ccc2O)c(F)c1	55.3%	0.414 µM	0.397 µM	–
Niclosamide [reference compound]	51.3%	–	–	IC50 (22RV1 cells): 0.284 µM; downregulation of AR (AR [1]): dose-dependent downregulation; IC50 (LNCaP95 cells): 0.372 µM
O=C(Nc1ccc(C(F)(F)F)c(C(F)(F)F)c1)c1cc(F)ccc1O [ARi 4]	–	–	–	downregulation of AR (AR [1]): dose-dependent downregulation; downregulation of AR-V7 (AR-V7 [2]): dose-dependent downregulation; downregulation of AR-V7 (AR-V7 [3]): dose-dependent downregulation; downregulation of AR (AR [4]): dose-dependent downregulation
O=C(Nc1ccc(C(F)(F)F)c(C(F)(F)F)c1)c1cc(F)ccc1O [drawing 30]	15.7%	–	0.13 µM	–
O=C(Nc1ccc(C(F)(F)F)cc1Cl)c1cc(F)ccc1O	14.5%	0.135 µM	0.148 µM	–
O=C(Nc1ccc(C(F)(F)F)cc1F)c1cc(F)ccc1O	12.4%	0.121 µM	0.152 µM	–
N#Cc1cc(NC(=O)c2cc(F)ccc2O)ccc1C(F)(F)F	21.8%	0.195 µM	0.161 µM	–
